Data reported in US20240050950A1, “GRADIENT-BASED MICROFLUIDIC CIRCUIT, DEVICE, AND METHOD FOR PERFORMING AN ASSAY” (priority 2020, published 2024).
Where a name gives a salt, the structure may show the parent alone. Read-outs that look alike come from different tables or passages of the source.

How the values were obtained:
E. coli 541-15 [1] = format: cell-based
Experimental: To perform a small-molecule-based biological assay in the MVM^2 platform, four main steps to load the reagents are followed. Step-i involves loading a suspension of the biological species (often with a fluorescent chemical indicator) into the MVM^2 platform so that it is uniformly distributed throughout (see FIG. 6C(i) and FIGS. 11A-D for more details; this step mainly takes ˜3-5 min). In step-ii, small-molecule solutions at C0, 0.1 C0, and 0.01 C0 concentrations are loaded into the high, medium, and low positive main-channels, respectively, which diffuse into the corresponding microchambers through the connected side-channels (see FIG. 6C(ii) and FIGS. 12A-D for more details; this step mainly takes as equal as the small-molecule loading time).
Resazurin (5 wt %) was also added to the bacterial suspension to allow monitoring of the bacterial cell metabolism through an irreversible resazurin-resorufin enzymatic reduction reaction (i.e., with increasing bacterial growth, the higher resazurin reduction results in greater fluorescent intensity).
To further confirm these findings based on the bacterial cell metabolism obtained from resazurin reduction, the red fluorescent intensities were correlated with the green fluorescence directly associated with the GFP-labeled bacterial growth in the corresponding microchambers (FIG. 9A and FIG. 9B). […] Moreover, the gold standard broth microdilution technique (measuring the bacterial cell density—OD600—vs. the incubation time) was used to validate the MVM^2 microfluidic device functionality (FIG. 9E).
Similarly, bacterial cell metabolism and growth using the resazurin reduction assay was probed and changes in the number of GFP-labeled bacteria during the assay was monitored, as shown in FIGS. 29A-B and FIGS. 30A-B, respectively.

E. coli 541-15 [2] = assay: Gold standard broth microdilution test (OD600 growth curves); format: cell-based
Experimental: Bacteria culture medium, strains, growth, and broth microdilution test. Non-selective Mueller-Hinton (“MET”) culture medium was used for all bacterial culture. In detail, a colony of bacteria pre-cultured on an LB agar plate (Corning, NY) was taken from a freshly streaked plate and suspended into 3 mL of MEI broth, and cultured at 37° C. overnight (˜12 h). The concentration of bacterial suspension was adjusted using a UV-Vis spectrophotometer (NanoDrop, Thermo-Fisher; Wilmington, DE). To do this, the overnight culture medium was diluted by 10-fold serial dilutions in non-selective MEI culture medium to find the appropriate final concentration (1×10^6 CFU/mL) for the antimicrobial susceptibility testing assay.
The gold standard broth microdilution test was performed by preparing the antibiotic solutions at their final concentrations from a stock solution of each examined antibiotic. A fresh 200 μL volume of each antibiotic solution (prepared in MEI culture medium) was pipetted into each microwell of a 96 MicroWell plate. […] Standardized growth curve analysis was performed using a Bioscreen C automated plate reader (Growth Curves USA, NJ) by measuring OD600. […]

E. coli LF82 = assay: MVM2 antimicrobial R/S profile, Crohn's disease clinical isolate; format: cell-based; conditions: MVM2 platform, 0.1-100 μg/mL, FIG. 9F
[3] = cited from earlier work
[4] = tested on: E. coli, S. aureus, S. uberis, and K. pneumoniae; assay: MVM2 antimicrobial R/S profile, bovine mastitis clinical isolates; format: cell-based; conditions: MVM2 platform, FIG. 32
From the text: Bovine with mastitis disease was also used to test the MVM^2 platform for deciphering their antimicrobial resistant/susceptibility profile. These antibiotics were chosen to investigate the most common and important antibiotics' mechanisms of action, including the disruption of bacterial cell wall and membrane synthesis, binding to RNA/DNA and interrupting nucleic acid replication, and inhibition of protein synthesis by binding to ribosome. FIG. 32 contains the following information: (i) the type of bacteria and tested antibiotic can be found at the left and right sides, respectively; (ii) each row includes 37 squares, as labeled at the top and have been categorized in 4 different categories—first square representing the microchamber as negative control (labeled with “N”), and every next twelve squares as respectively representing low, medium, and high positive ranges of antibiotic concentrations; (iii) the low, medium, and high ranges are included the concentration ranges of 0.1-1, 1-10, and 10-100 μg/mL; (iv) there are three types of squares: dark red, dark pink or light pink. If bacteria is susceptible to a specific antibiotic (e.g., E. coli/cefuroxime pair, see FIG. 32), below MIC (shown by dark pink color), bacteria can survive and grow causing more resazurin reduction (shown by dark red). At concentrations greater than the MIC, the bacterial growth stopped as shown by light pink color. The dark pink squares also show the microchambers which antimicrobial susceptibility was monitored at different trials. […].

E. coli = assay: MVM2 antimicrobial R/S profile, bovine mastitis E. coli isolate; format: cell-based; conditions: MVM2 platform, 0.1-100 μg/mL, FIG. 32
From the text: Bovine with mastitis disease was also used to test the MVM^2 platform for deciphering their antimicrobial resistant/susceptibility profile. These antibiotics were chosen to investigate the most common and important antibiotics' mechanisms of action, including the disruption of bacterial cell wall and membrane synthesis, binding to RNA/DNA and interrupting nucleic acid replication, and inhibition of protein synthesis by binding to ribosome. FIG. 32 contains the following information: (i) the type of bacteria and tested antibiotic can be found at the left and right sides, respectively; (ii) each row includes 37 squares, as labeled at the top and have been categorized in 4 different categories—first square representing the microchamber as negative control (labeled with “N”), and every next twelve squares as respectively representing low, medium, and high positive ranges of antibiotic concentrations; (iii) the low, medium, and high ranges are included the concentration ranges of 0.1-1, 1-10, and 10-100 μg/mL; (iv) there are three types of squares: dark red, dark pink or light pink. […] The dark pink squares also show the microchambers which antimicrobial susceptibility was monitored at different trials. […]

[5] = tested on: E. coli LF82, E. faecalis 44, and K. pneumoniae 578; assay: MVM2 antimicrobial R/S profile, isolates from ileal mucosa of human patients with Crohn's disease; format: cell-based; conditions: MVM2 platform, FIG. 9F
[6] = Table 1, antimicrobial agents/drugs
[7] = Table 3, antifungal drugs and other molecules

With CC1(C)S[C@@H]2[C@H](NC(=O)[C@H](N)c3ccccc3)C(=O)N2[C@H]1C(=O)O [D-(−)-α-Aminobenzylpenicillin] as the molecule, how does the susceptibility/resistance outcome (E. coli 541-15 [1]; MVM2 platform, 0.1-100 μg/mL, 4 h) read?
The susceptibility/resistance outcome was “resistance”.

What about the susceptibility/resistance outcome (E. coli 541-15 [2]) of the same molecule?
Its susceptibility/resistance outcome is “resistance”.

What about the susceptibility/resistance outcome (E. coli LF82) of the same molecule?
The susceptibility/resistance outcome was “resistance”.

And the Molar volume [3, 6]?
The Molar volume was 239.3 ± 5.0 cm^3.

With CCC[C@@H]1C[C@@H](C(=O)N[C@@H]([C@H]2O[C@H](SC)[C@H](O)[C@@H](O)[C@H]2O)[C@@H](C)O)N(C)C1 [Lincomycin] as the molecule, how does the “effectiveness among tested antibiotics” value [4] read?
Its value is “not effective”.

And the susceptibility/resistance outcome (E. coli)?
The susceptibility/resistance outcome was “resistance”.

What about the Molar volume [3, 6] of the same molecule?
The Molar volume was 313.2 ± 5.0 cm^3.

Which “effectiveness among tested antibiotics” value [4] does the source give for CCn1cc(C(=O)O)c(=O)c2ccc(C)nc21 [Nalidixic acid] here?
The value was “most effective”.

With CC(C)N1CCN(c2ccc(OCC3COC(Cn4cncn4)(c4ccc(Cl)cc4Cl)O3)cc2)CC1 (stereo not drawn) [Terconazole] as the molecule, how does the Molar volume [3, 7] read?
The Molar volume was 391.5 ± 7.0 cm^3.

For O=C1CCC(N2C(=O)c3ccccc3C2=O)C(=O)N1 (stereo not drawn) [Thalidomide], which Molar volume ([3]; Table 2, anticancer drugs) is on record?
The Molar volume was 171.7 ± 3.0 cm^3.

Which Molar volume [3, 7] does the source give for Cc1ccc(C(C)C)c(O)c1 [Thymol (5-Methyl-2-isopropylphenol), 5-Methyl-2-isopropylphenol] here?
The Molar volume was 150.2 cm^3.

With Clc1ccc(C(Cn2ccnc2)OCc2ccsc2Cl)c(Cl)c1 (stereo not drawn) [Tioconazole] as the molecule, how does the Molar volume [3, 7] read?
Its Molar volume is 269.0 ± 7.0 cm^3.

Which Molar volume [3, 7] does the source give for Cc1cccc(N(C)C(=S)Oc2ccc3ccccc3c2)c1 [Tolnaftate] here?
The Molar volume was 251.1 ± 3.0 cm^3.

Which Molar volume ([3]; Table 2, anticancer drugs) does the source give for COc1cc2c(cc1O)CCN[C@]21CS[C@@H]2c3c(OC(C)=O)c(C)c4c(c3[C@H](COC1=O)N1[C@@H]2[C@H]2c3c(cc(C)c(OC)c3O)C[C@@H]([C@@H]1O)N2C)OCO4 [Trabectedin (Yondelis), Trabectedin] here?
Its Molar volume is 489.2 ± 5.0 cm^3.

Which Molar volume [3, 7] does the source give for Nc1ncnc2c1ccn2[C@@H]1O[C@H](CO)[C@@H](O)[C@H]1O [Tubercidin] here?
The Molar volume was 139.5 ± 7.0 cm^3.

For CC(=O)OC[C@H]1O[C@@H](n2ccc(=O)[nH]c2=O)[C@H](OC(C)=O)[C@@H]1OC(C)=O [Uridine Triacetate (Vistogard), Uridine Triacetate], which Molar volume ([3]; Table 2, anticancer drugs) is on record?
The Molar volume was 257.5 ± 5.0 cm^3.

Which Molar volume ([3]; Table 2, anticancer drugs) does the source give for CCCCC(=O)OCC(=O)[C@]1(O)Cc2c(O)c3c(c(O)c2[C@@H](O[C@H]2C[C@H](NC(=O)C(F)(F)F)[C@H](O)[C@H](C)O2)C1)C(=O)c1c(OC)cccc1C3=O [Valrubicin] here?
Its Molar volume is 469.8 ± 5.0 cm^3.

For CC[C@]1(O)C[C@@H]2CN(CCc3c([nH]c4ccccc34)[C@@](C(=O)OC)(c3cc4c(cc3OC)N(C)[C@H]3[C@@](O)(C(=O)OC)[C@H](OC(C)=O)[C@]5(CC)C=CCN6CC[C@]43[C@@H]65)C2)C1 [Vinblastine Sulfate], which Molar volume ([3]; Table 2, anticancer drugs) is on record?
Its Molar volume is 590.0 ± 5.0 cm^3.

With O=C(CCCCCCC(=O)Nc1ccccc1)NO [Vorinostat (Zolinza), Vorinostat] as the molecule, how does the Molar volume ([3]; Table 2, anticancer drugs) read?
The Molar volume was 224.9 ± 3.0 cm^3.

With Cc1nccn1CC1CCc2c(c3ccccc3n2C)C1=O (stereo not drawn) [Zofran (Ondansetron Hydrochloride), Ondansetron Hydrochloride] as the molecule, how does the Molar volume ([3]; Table 2, anticancer drugs) read?
The Molar volume was 230.1 ± 7.0 cm^3.

For O=C(O)CN(CC(=O)O)Cc1cc2c(cc1O)Oc1cc(O)c(CN(CC(=O)O)CC(=O)O)cc1C21OC(=O)c2ccccc21 [calcein], which Molar volume ([3]; fluorescent dyes) is on record?
Its Molar volume is 356±5 cm^3/mole.

Which results are given for CO/N=C(\C(=O)N[C@@H]1C(=O)N2C(C(=O)O)=C(COC(N)=O)CS[C@H]12)c1ccco1 [cefuroxime]?
effectiveness among tested antibiotics [4]: most effective; susceptibility/resistance outcome (E. coli): susceptible

For O=c1ccc2[n+]([O-])c3ccc(O)cc3oc-2c1 [resazurin], which Molar volume ([3]; fluorescent dyes) is on record?
The Molar volume was 145±7 cm^3/mole.

Which Molar volume [3, 6] does the source give for CC1(C)S[C@@H]2[C@H](NC(=O)C(C(=O)O)c3ccccc3)C(=O)N2[C@H]1C(=O)O (stereo partly drawn) [α-Carboxybenzylpenicillin] here?
Its Molar volume is 246.1 ± 5.0 cm^3.

With Aculeacin A as the molecule, how does the Molar volume [3, 6] read?
The Molar volume was 754.1 ± 5.0 cm^3.

With Alemtuzumab as the molecule, how does the Molar volume ([3]; Table 2, anticancer drugs) read?
Its Molar volume is 165.7 ± 7.0 cm^3.

With Antimycin as the molecule, how does the Molar volume [3, 7] read?
The Molar volume was 431.0 ± 5.0 cm^3.

With Bleomycin as the molecule, how does the Molar volume [3, 7] read?
Its Molar volume is 887.0 ± 5.0 cm^3.

For Cinnamycin, which Molar volume [3, 7] is on record?
Its Molar volume is 1281.0 ± 7.0 cm^3.

Which Molar volume [3, 6] does the source give for Colistin here?
Its Molar volume is 916.9 ± 5.0 cm^3.

For Epoetin Alfa, which Molar volume ([3]; Table 2, anticancer drugs) is on record?
Its Molar volume is 665.6 ± 5.0 cm^3.

Which Molar volume [3, 7] does the source give for Fengycin [Fengycin (Plipastatin)] here?
The Molar volume was 1105.9 ± 5.0 cm^3.

What does the source list for Gentamicin?
susceptibility/resistance outcome (E. coli 541-15 [1]): susceptible; MIC (E. coli 541-15 [1]; MVM2 platform, 4 h at 37° C., n=5): 2.82 ± 0.68 µg/mL; MIC (E. coli 541-15 [2]; n=5): 3 ± 2 µg/mL; susceptibility/resistance outcome (E. coli LF82): susceptible; effectiveness among tested antibiotics [5]: most effective; effectiveness among tested antibiotics [4]: most effective

Which Molar volume ([3]; Table 2, anticancer drugs) does the source give for “Gilteritinib Fumarate [Xospata (Gilteritinib Fumarate)]” here?
Its Molar volume is 444.9 ± 3.0 cm^3.

Which Molar volume [3, 6] does the source give for Ikarugamycin here?
The Molar volume was 390.4 ± 5.0 cm^3.

For Ivermectin Bla, which Molar volume [3, 6] is on record?
The Molar volume was 708.3 ± 5.0 cm^3.

Which Molar volume [3, 6] does the source give for Kirromycin [Kirromycin (mocimycin)] here?
The Molar volume was 622.6 ± 3.0 cm^3.

Which Molar volume [3, 6] does the source give for “Lactoferricin B (SITCVRRAFALECIRAIAEKKADAV; Lactoferricin-B; UniProt P24627 52-76, looked up, fragment) [Lactoferricin B (metallibure)]” here?
Its Molar volume is 184.7 ± 3.0 cm^3.

For Lysobactin, which Molar volume [3, 6] is on record?
The Molar volume was 895.9 ± 7.0 cm^3.

With Magainin I as the molecule, how does the Molar volume [3, 6] read?
Its Molar volume is 1900.4 ± 3.0 cm^3.

With “Mithramycin A [Mithramycin A (Plicamycin)]” as the molecule, how does the Molar volume [3, 6] read?
The Molar volume was 728.3 ± 5.0 cm^3.

With Neomycin as the molecule, how does the Molar volume [3, 6] read?
Its Molar volume is 380.3 ± 5.0 cm^3.

Which Molar volume [3, 6] does the source give for “Phleomycin [Phleomycin (UNII:BN3E7WJN9X)]” here?
Its Molar volume is 724.4 ± 7.0 cm^3.

With Polymyxin B as the molecule, how does the Molar volume [3, 6] read?
Its Molar volume is 941.8 ± 5.0 cm^3.

With “Reveromycin A [Reveromycin A (MFCD00912537)]” as the molecule, how does the Molar volume [3, 6] read?
The Molar volume was 542.2 ± 5.0 cm^3.

Which Molar volume [3, 6] does the source give for gramicidin s here?
Its Molar volume is 919.5 ± 5.0 cm^3.

B1: Neocarzinostatin (protein, UniProt P0A3R9 35-147, looked up)
Neocarzinostatin: AAPTATVTPSSGLSDGTVVKVAGAGLQAGTAYDVGQCAWVDTGVLACNPADFSSVTADANGSASTSLTVRRSFEGFLFDGTRWGTVDCTTAACQVGLSDAAGNGPEGVAISFN
modifications: enediyne chromophore
For B1, which Molar volume [3, 6] is on record?
Its Molar volume is 434.9 ± 5.0 cm^3.

B2: Pegfilgrastim (protein, UniProt P09919 31-207, looked up)
Granulocyte …: TPLGPASSLPQSFLLKCLEQVRKIQGDGAALQEKLVSECATYKLCHPEELVLLGHSLGIPWAPLSSCPSQALQLAGCLSQLHSGLFLYQGLLQALEGISPELGPTLDTLQLDVADFATTIWQQMEELGMAPALQPTQGAMPAFASAFQRRAGGVLVASHLQSFLEVSYRVLRHLAQP
modifications: N-terminal methionine; PEG
For B2, which Molar volume ([3]; Table 2, anticancer drugs) is on record?
Its Molar volume is 252.4 ± 3.0 cm^3.
